Measured values taken from patent publication US20060142326A1, “Use of pyrazolopyridines for the treatment of cognitive deficits” (priority 2003, published 2006).

Tests used:
old rats = test: Aquatic labyrinth test (Morris pool) in old rats; type: in vivo, rat
From the text: This test is used to evaluate the capacities to memorise and to manage spatial information in rats in an aversive situation. The task consists for the animal of locating with the help of distance indices a <<refuge >> platform, invisible by immersion in a tank filled with opacified water. The device makes it possible to evaluate the reference memory of the animal (the platform remains in the same place on each day of the test). This test makes it possible to appreciate the […] performances dependent upon the functions of the hippocampus of the animals tested. In particular, this test makes it possible to discriminate between the performances of adult rats (10 months) and those of old rats (30 months). The hippocampus is a cerebral structure the functions of which are altered prematurely in Alzheimer's disease. The Morris pool test is therefore particularly recognised by experts in the field as making it possible to appreciate the pharmacological properties of compounds intended to treat Alzheimer's disease and other diseases associated with a cognitive deficit. Old rats treated with etazolate (3 mg/kg and 10 mg/kg) administered orally and rats treated by the vehicle were used for this study. The performances of these animals in the Morris pool test were compared to those of a control group of adult rats.

[1] = Single increasing oral dose study in healthy volunteers (tolerance, plasmatic dosage); type: in vivo, human
Protocol: In this study, single, increasing doses of etazolate (0.5, 1, 2, 5, 10 and 20 mg) were administered orally in the form of capsules dosed at 0.5 and 5 mg to different and sequential groups of eight young, healthy, volunteer subjects of the male sex. This study was carried out in just one centre, double-blind, and two of the eight subjects were given a placebo. The parameters evaluated were clinical (appearance of adverse effects, of clinical signs, change in arterial pressure or heart rate), electrocardiographic (ECG recording) and biological tolerance (hematology and sanguineous biochemistry, urinary examination) for the 24 hrs following administration of the product. A plasmatic dosage of the product was carried out in each subject at different times before and after administration of the product (0.25-0.50-1.00-1.50-2.00-3.00-4.00-5.00-6.00-8.00-10.00-12.00 and 24.00 hours). A urinary dosage of the product was also carried out from urines collected before and after administration of the product (4, 4-8, 8-12 and 12-24 hours).

[2] = tested on: ventral spinal cord cells; test: Toxicity induced by NMDA/serine on ventral spinal cord cells, MTT test; type: cell-based, Wistar rat; conditions: 25 μM NMDA + 10 μM D-serine, 3 hours
Protocol: The cells are isolated from 14 day old Wistar rat embryos. Upon their arrival, the pregnant female rats are sacrificed by means of carbon dioxide. The series of embryos is taken and placed in a box containing PBS. The spinal cord of each embryo is dissected and the ventral cord is separated from the dorsal cords. The ventral cords are then trypsinised at 37° C. for 20 mins. The effect of the trypsin is halted by the addition of a medium made up from Leibovitz 15 medium, 20% horse serum, N2 (1×) supplement, 20% glucose (3.2 mg/ml), 7.5% bicarbonate (1.8 mg/ml) and L-glutamine (2 mM). The cells are dissociated by trituration. The accumulated tissue is removed and the dissociated cells are then quantified by dying with trypan blue. The cells sown at a density of 250 000 cells/cm^2 in a medium made up from neurobasal medium, horse serum (2%), B27 (1×) supplement, and glutamine (2 mM). After 3 days of in vitro culture, an anti-mitotic agent, ARA-C (5 μM), is added to the cells so as to inhibit production of glial cells. The cells are placed in culture at 37° C. in a humidified incubator (5% CO2) for 9 days. […] The results are standardised to the average of the untreated controls and analysed statistically by means of a Wilcoxon test with ρ less than 0.05. Toxicity is measured using the MTT test. […] The absorbance at 550 nm is read and the viability percentage is calculated.

cortical neurons [3] = test: Toxicity induced by NMDA/serine on cortical neurons, MTT test; type: cell-based, Wistar rat; conditions: 20 μM NMDA + 10 μM D-serine, six hours
Protocol: (§1) 16 day old Wistar rat embryos are taken and the cortexes dissected. Following trypsination at 37° C. for 25 minutes, the cells are dissociated by trituration. The cells are sown in minimum essential medium, supplemented with 10% horse serum and 10% foetal calf serum and 2 mM glutamine, at a density of 300,000 cells per cm^2. After 4 days in culture half of the medium is changed with minimum essential medium supplemented with 5% horse serum and 2 mM glutamine. […] After seven and eleven days of culture, half of the medium is changed with conditioned medium. The conditioned medium is made up from MEM containing 5% horse serum and 2 mM glutamine; this medium is passed over a carpet of cortical astrocytes for a night before being used. On day 14, the cells are treated with the etazolate inhibitor compound, before adding toxics, 50 μM kainate or 20 μM N-methyl-D-aspartate in the presence of 10 μM D-serine. All of the treatments are carried out at least in duplicate and in at least two different cultures. Following an incubation of six hours the toxicity is measured by an MTT test. The results, standardised to the untreated average, are statistically analysed by the Wilcoxon test. The significant value is established at ρ less than or equal to 0.05. Toxicity is measured using the MTT test. […] The absorbance at 550 nm is read and the viability percentage is calculated.

[4] = tested on: granular cells of the cerebellum; test: Toxicity induced by NMDA/serine on granular cells of the cerebellum, MTT test; type: cell-based, Wistar rat; conditions: 100 μM NMDA + 10 μM D-serine, six hours
Protocol: (§2) Seven day old Wistar rats are decapitated and their cerebella are dissected. After having removed the meninges, the tissue is cut into small pieces and trypsinised for 15 minutes at 37° C. The cells are disassociated by trituration and placed in cultures at a density of 300,000 cells per cm^2 in Eagle's base medium supplemented with 10% foetal calf serum and 2 mM glutamine. The following day 10 μM ARA-C, an antimitotic, is added so as to prevent proliferation of the glial cells. The cells are treated for 9 days after placing in culture with the etazolate inhibiting compound, before adding toxics, 50 μM kainate or 100 μM N-methyl-D-aspartate in the presence of 10 μM D-serine. 8-bromo-cAMP is added just before the toxics. All of the treatments are carried out at least in duplicate and in at least two different cultures. Following an incubation of six hours, the toxicity is measured by an MTT test. The results, standardised to the untreated average, are statistically analysed by the Wilcoxon test. The significant value is established at p less than or equal to 0.05. Toxicity is measured using the MTT test. Following incubation with the compounds, MTT is added at a final concentration of 0.5 mg/ml per well. The plaques are then incubated for 30 minutes at 37° C. in the dark. […] The absorbance at 550 nm is read and the viability percentage is calculated.

[5] = tested on: cerebral infarction in rats; test: Model of cerebral infarction in rats (occlusion of the internal carotide and medium arteries of the brain); type: in vivo; conditions: rat
Protocol: The in vivo protective effect of etazolate was evaluated in a model of cerebral infarction in rats. During this study, a cerebral infarction was brought about by an intracavity occlusion of the internal carotide and the medium arteries of the brain. A group of eight rats was treated with etazolate (10 mg/kg, p.o.) before and several times after occlusion. A group of eight rats was treated with the reference compound, L-NAME (1 mg/kg, i.p.) before and several times after occlusion. A group of eight rats was only treated with the vehicle. The effects were evaluated by clinical observations, neurological function tests and by establishing the size of the infarction at the end of the study.

SH-SY5Y cells = test: Toxicity induced by 6-hydroxydopamine (oxidative stress) on SH-SY5Y cells, MTT test; type: cell-based, human; conditions: 6-OHDA treatment
Protocol: In this example, cells from the SH-SY5Y line were placed in culture according to the techniques known to experts in the field. These cells, derived from a human neuroblast, have properties which characterise a neuronal precursor at a premature stage of development. The toxic used is 6-hydroxydopamine (6-OHDA) which induces oxidative stress. Toxicity is measured by an MTT test.

[6] = tested on: granular cells of the cerebellum; test: Toxicity induced by kainate on granular cells of the cerebellum, MTT test; type: cell-based, Wistar rat; conditions: 50 μM kainate, six hours
Protocol: as §2

cortical neurons [7] = test: Toxicity induced by kainate on cortical neurons, MTT test; type: cell-based, Wistar rat; conditions: 50 μM kainate, six hours
Protocol: as §1

Question: Which “performances in the Morris pool test” value (old rats; 3 mg/kg orally) does the source give for `CCOC(=O)c1cnc2c(cnn2CC)c1NN=C(C)C` [etazolate] here?
Answer: The value was “slightly improves the performances of old rats”.

Question: And the “performances in the Morris pool test” value (old rats; 10 mg/kg orally, compared to adult rats)?
Answer: The value was “importantly brings the performances of old animals closer to those of adult animals”.

Question: And the secondary effects ([1]; healthy male volunteers, single oral doses 0.5-20 mg)?
Answer: The secondary effects was “did not involve any secondary effects”.

Question: And the “tolerance (clinical, electrocardiographic, biological)” value ([1]; healthy male volunteers, single oral doses 0.5-20 mg, 24 hrs)?
Answer: Its value is “well tolerated”.

Question: What about the “absorption (plasmatic dosages)” value ([1]; humans, oral capsules, at strong doses) of the same compound?
Answer: Its value is “good absorption”.

Question: What about the protective effect [2] of the same compound?
Answer: The protective effect was 36%.

Question: And the protective effect (cortical neurons [3])?
Answer: The protective effect was 47%.

Question: What about the protective effect [4] of the same compound?
Answer: Its protective effect is 40%.

Question: What about the “neurological evaluation relative to the control group” value ([5]; 10 mg/kg p.o.) of the same compound?
Answer: Its value is “improvement”.

Question: And the “reduction of the size of the infarction relative to the control” value ([5]; 10 mg/kg p.o. before and several times after occlusion, average)?
Answer: Its value is 28%.

Question: What about the hypoactivity ([5]; 10 mg/kg p.o., control group 42%) of the same compound?
Answer: The hypoactivity was 31%.

Question: And the protective effect (SH-SY5Y cells)?
Answer: Its protective effect is 40%.

Question: And the protective effect [6]?
Answer: The protective effect was 50%.

Question: What about the protective effect (cortical neurons [7]) of the same compound?
Answer: The protective effect was 40%.
